# From EP0171005A2, “Xanthinylmethylthiazolidines, process for their preparation and pharmaceutical compositions containing them” (BOEHRINGER BIOCHEMIA ROBIN S.p.A., priority 1984, dated 1986)
# Where two headings read alike, the source gives them in different places.
# Experiments:
# [1] = test system: male New Zealand white rabbits; experiment: Mucus regulating properties in bronchitic rabbits (5% H2SO3 aerosol), sputum parameters as AUC; format: in vivo; conditions: for Fucose (mg/ml), AUC as a 100% compared to bronchitic controls / Galactose (mg/ml), AUC as a 100% compared to bronchitic controls / Mucus produc-tion (ml/kg), AUC as a 100% compared to bronchitic controls / Phospho-lipids (mg/ml), AUC as a 100% compared to bronchitic controls / Protein (mg/ml), AUC as a 100% compared to bronchitic controls / Sialic acid (mg/ml), AUC as a 100% compared to bronchitic controls / Viscosity (cps), AUC as a 100% compared to bronchitic controls: Table 2, oral, equimolecular amounts to S-carboxymethyl cysteine
# Protocol: The mucus regulating properties of the compounds of the invention are investigated "in vivo" by means of experiments carried out on male New Zealand white rabbits. The animals are submitted to inhalation of a 5% H2S03 aqueous solution by aerosol (exposition of 3 hours a day for 3 alternate days), to induce a chronic bronchial inflammatory disease which causes a production of pathological sputum in the bronchial tree.
# Aim of the experiments is to evaluate modifications of selective parameters such as dry weight of the sputum, viscosity, content in proteins, phospholipids, galactose, sialic acid and fucose, induced in this pathological sputum by pharmacological treatment with the compounds of the invention.
# To this purpose, the sputum produced in the bronchial tree is collected daily, through a "T" shaped glass cannula, inserted in the trachea, before and after oral twice a day (9.00 a.m. and 4.00 p.m.) treatment with one of the compounds of the invention.
# The schedule treatment procedure is shown in the following Schema 1: [drawing 23] where 0 indicates the day of implantation of the tracheal cannula; -7-5-3 indicate the days of H2S03 treatment (H); 1,2,3,4 indicate the days of oral administration of the compounds of the invention (T) and the time of mucus collection (M).
# The mucus collected in day 1 in the morning is considered as a blank; 7 indicates the day of the animal sacrifice after the mucus collection.
# The sputum samples are stored in the freezer (-20°C) until the investigation of biological and rheological parameters is carried out.
# The samples are investigated for relative viscosity, measured at 37°C with a Brookfield viscometer (model LT VD) equipped with a 1,565° cone-plate, and aliquoted for biochemical analysis of protein, phospholipids, galactose, sialic acid and fucose contents. Dry weight of the mucus is also determined. For each parameter, cumulative data are referred to a seven days period after the beginning of the treatment and they are extrapolated using the AUC method (area under curve) calculated by the trapezoidal rule. Finally the data are compared with data obtained from controls (vehicle treatment), non bronchitic rabbits (vehicle treatment) and positive controls bronchitis rabbits treated with 0.153 M 2-carboxymethyl cysteine.
# conscious mongrel dogs = experiment: Dog cough test (Stefko procedure, cough induced by electric stimulation of the trachea); format: in vivo
# Protocol: (§1) The techniques described by Charlier et al. (Arch. Int. Pharmacodyn. 134, 306, 1961) and by Stefko et al. (J. Pharm. Exp. Therap., 108, 217, 1953), adapted with minor modifications, are used to investigate the antitussive properties of the compounds of the invention. Codeine phosphate is used as positive reference compound.
# In the Stefko procedure, conscious mongrel dogs (15+3 kg body weight) are used; the compounds of the invention are tested for their ability to inhibit cough induced by electric stimulation.
# Under general anesthesia, two insulated nichrome wires (0.4 mm diameter) are surgically implanted into the submucosa of the trachea.
# About two days later, the dogs are placed in a sling and the exteriorized electrodes are connected to an electric stimulating device (such as Grass S 48 Mod.).
# The stimulation parameters such as: delay 0.01 msec, duration 1 msec, frequency 30 Hz, are used.
# An electrical stimulus of 1 sec is applied 10 times at 5 sec intervals in order to determine the minimum voltage necessary for eliciting reproducible cough responses. Then, tussive responses to the electrical stimuli are registered at 15, 30, 60, 90, 120, 150, 180, 240, 300 and 360 minutes after oral administration of the compounds of the invention.
# The tussive responses are scored as follows: • 1: no response; 2: sigh or exaggerated expiration; • 3: marked cough; 4: one marked cough and one exaggerated expiration; 5: two marked coughs.
# Six dogs are employed for each determination and the mean activity is calculated.
# The inhibition percent of the cough response and the duration of activity are compared with codeine.
# Guinea pigs = experiment: Guinea pig cough test (Charlier procedure, citric acid aerosol); format: in vivo; conditions: for ED50: Cavia porcellus, ip, 1 h; for delay of first cough stroke: delay corresponding to the ED50, i.p.
# Protocol: as §1
# According to the Charlier procedure, Guinea pigs are exposed to a citric acid aerosol (7.5%) and cough is recorded 60 minutes after the antitussive treatment by i.p. route. Male animals of 300-400 g body weight are used in all the experiments. Guinea pigs are placed in a perspex box (20x30x30 cm) connected to an aerosol compressor; the animals are subjected to a citric acid saturated atmosphere, 60 minutes after the i.p. injection of a compound of the invention (0.1 and 0.3 M solutions; 1 ml/kg).
# The total number of cough strokes and the delay of the first cough are recorded during the first five minutes.
# Five guinea pigs are used for each dose level and the results are compared with controls (vehicle treatment) and codeine phosphate 0.07 M solution (standard treatment).
# ED and the corresponding delay of first cough stroke are calculated.
# The data obtained by i.p. administration are confirmed by oral administration.
# [2] = test system: trachea smooth muscle strips of Guinea pig contracted by methaco- line; experiment: Relaxation in vitro of trachea smooth muscle strips contracted by methacholine; conditions: Cavia porcellus, read-out: ED50 (the source's name)
# From the text: In particular these latter compounds of the invention are also characterized by pronounced ability to induce relaxation of the bronchial and tracheal smooth muscle.
# [3] = Acute toxicity, LD50 in mice; conditions: mouse, in vivo
# From the text: LD50 values above 1 g/kg are generally determined both after oral and intraperitoneal administration of the compounds of the invention.
# [4] = test system: anhaestetized guinea pigs; experiment: Konzett-Ressler test, resolution of histamine-induced bronchospasm; format: in vivo; conditions: intrajugular administration; bronchospasm induced by i.v. histamine
# [5] = Table 1, 0.153 M, oral twice a day, seven days period
smiles,measurement,setting,value
"N[C@@H](CSCC(=O)O)C(=O)O [S-carboxy-methyl cy steine, S-carboxymethyl cysteine, reference compound]","Fucose mg/ml, AUC as a % compared to bronchitis controls",[1]; [5],56%
same,"Galactose mg/ml, AUC as a % compared to bronchitis controls",[1]; [5],64%
same,"Mucus production ml/kg, AUC as a % compared to bronchitis controls",[1]; [5],97%
same,"Phospholipids mg/ml, AUC as a % compared to bronchitis controls",[1]; [5],108%
same,"Protein mg/ml, AUC as a % compared to bronchitis controls",[1]; [5],105%
same,"Sialic acid mg/ml, AUC as a % compared to bronchitis controls",[1]; [5],60%
same,"Viscosity (cps), AUC as a % compared to bronchitis controls",[1]; [5],52%
"Cn1c(=O)c2c(ncn2CC2NC(C(=O)O)CS2)n(C)c1=O (centres unmarked) [2-[(1',3'-dimethylxanthin-7'-yl)methyl]thiazolidine-4-carboxylic acid]","Fucose (mg/ml), AUC as a 100% compared to bronchitic controls",[1],77%
same,"Galactose (mg/ml), AUC as a 100% compared to bronchitic controls",[1],82%
same,"Mucus produc-tion (ml/kg), AUC as a 100% compared to bronchitic controls",[1],128%
same,"Phospho-lipids (mg/ml), AUC as a 100% compared to bronchitic controls",[1],78%
same,"Protein (mg/ml), AUC as a 100% compared to bronchitic controls",[1],80%
same,"Sialic acid (mg/ml), AUC as a 100% compared to bronchitic controls",[1],81%
same,"Viscosity (cps), AUC as a 100% compared to bronchitic controls",[1],55%
same,duration of action compared with codeine,"conscious mongrel dogs; 20 mg/kg, dogs",favourably compares with codeine for its duration of action
same,inhibition at 20 mg/kg,"conscious mongrel dogs; Canis lupus familiaris, 20 mg/kg, oral, read-out: inhibition of the cough stimulus",32%
same,ED50,"Guinea pigs; citric acid aerosol 7.5%, cough recorded 60 minutes after i.p. treatment, read-out: ED50",62 mg/kg
same,delay of first cough stroke,Guinea pigs,213%
same,duration of action compared with codeine,Guinea pigs; guinea pig cough test,more favourable duration of action in comparison to codeine
"Cn1c(=O)c2c(ncn2CC(O)CO)n(C)c1=O (centres unmarked) [dihydroxypropyltheophylline, reference compound]",EC50,"[2]; reference, unit inferred",76 µM
"Cn1c(=O)c2c(ncn2CC2NCCS2)n(C)c1=O (centres unmarked) [2-[(1',3'-dimethylxanthin-7'-yl)methyl]thiazolidine]",LD50,"[3]; ip, read-out: LD 50 (i.p.)",480 mg/kg
same,LD50,"[3]; oral, read-out: LD 50 (os)",600 mg/kg
same,"Fucose (mg/ml), AUC as a 100% compared to bronchitic controls",[1],66%
same,"Galactose (mg/ml), AUC as a 100% compared to bronchitic controls",[1],5%
same,"Mucus produc-tion (ml/kg), AUC as a 100% compared to bronchitic controls",[1],80%
same,"Phospho-lipids (mg/ml), AUC as a 100% compared to bronchitic controls",[1],30%
same,"Protein (mg/ml), AUC as a 100% compared to bronchitic controls",[1],58%
same,"Sialic acid (mg/ml), AUC as a 100% compared to bronchitic controls",[1],101%
same,"Viscosity (cps), AUC as a 100% compared to bronchitic controls",[1],16%
"COc1ccc2c3c1O[C@H]1[C@@H](O)C=C[C@H]4[C@@H](C2)N(C)CC[C@@]341 [codeine phosphate, reference compound]",duration of activity,"conscious mongrel dogs; 8 mg/kg, oral",2 to 4 h
same,inhibition at 8 mg/kg,"conscious mongrel dogs; Canis lupus familiaris, po, read-out: inhibition of the cough stimulus",52%
same,ED50,Guinea pigs,~23 mg/kg
same,delay of first cough stroke,Guinea pigs,170%
"COc1cc(C=CC(=O)N2CCSC2Cn2cnc3c2c(=O)n(C)c(=O)n3C)cc(CN2CCOCC2)c1O (centres unmarked) [2-LTl',3'-dimethyl-xanthin-7'-yl)methyl]-3-[(3-morpholinylmethyl-4'-hydroxy-5'-methoxy)cinnamoyi7thiazolidine]",EC50,[2],190 µM
same,activity compared with aminophylline in the resolution of bronchospasm,[4],at least four times more active than aminophylline
